# Results: US8536199B2, “Oral combination of vitamins” (priority 2008, dated 2013)
# Test system: pregnant women in first trimester (nausea and vomiting, morning sickness)
# Assay: Treatment of morning sickness in pregnant women with chewable tablets (volunteer reports)
# Type: in vivo, human
# Settings: volunteer 8, recalled from their first pregnancy
# Source text: A group of pregnant women were provided with the tablets, as prepared in Example 3, and were advised to take one to two tablets per day.
smiles,measurement,value
"Cc1ncc(CO)c(CO)c1O [vitamin B6, pyridoxine]",Reported effect of vitamin B6 injections on nausea of pregnancy,did not feel helped
